# Reference: ChEMBL document CHEMBL1201862, “PubChem BioAssay data set” (2004)
#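 A five-concentration, 48-hour dose response in 96-well plates underlies each endpoint, interpolated linearly between surrounding concentrations. Abbreviation: GI50, concentration required for 50% inhibition of growth.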 Activity calls are given as the source filed them. Rule as the data show it: active = GI50 up to about 1.1 µM and inactive = higher.
# Legend:
# Test in all cases: NCI anticancer screen, dose series, 48 h
# [1] = test system: 786-0
# [2] = test system: A549
# [3] = test system: DU-145
# [4] = test system: HCT-116
# [5] = test system: HOP-92
# [6] = test system: M14
# [7] = test system: MDA-MB-231
# [8] = test system: MDA-MB-435
# [9] = test system: NCI/ADR-RES
# [10] = test system: OVCAR-3
# [11] = test system: OVCAR-4
# [12] = test system: SF-539
# [13] = test system: SK-MEL-28
# [14] = test system: SN12C
# [15] = test system: SNB-19
# [16] = test system: SNB-75
# [17] = test system: T47D
# [18] = test system: TK-10
# [19] = test system: Hs-578T
# [20] = test system: SK-OV-3
SMILES,GI50 [1],GI50 [2],GI50 [3],GI50 [4],GI50 [5],GI50 [6],GI50 [7],GI50 [8],GI50 [9],GI50 [10],GI50 [11],GI50 [12],GI50 [13],GI50 [14],GI50 [15],GI50 [16],GI50 [17],GI50 [18],GI50 [19],GI50 [20]
CSc1nc2c(c(=O)[nH]1)N=C(c1ccc([N+](=O)[O-])cc1)CC(c1ccccc1)N2 (stereo not given),34.7 µM (inactive),32.4 µM (inactive),86.1 µM (inactive),21.4 µM (inactive),> 100 µM (inactive),29.7 µM (inactive),32.3 µM (inactive),28.2 µM (inactive),30 µM (inactive),55.6 µM (inactive),28.7 µM (inactive),29.2 µM (inactive),22.7 µM (inactive),54.8 µM (inactive),> 100 µM (inactive),22.7 µM (inactive),,,,
Cn1nc(Cc2ccc(Cl)cc2)n(N)c1=O,> 100 µM (inactive),> 100 µM (inactive),> 100 µM (inactive),> 100 µM (inactive),,,> 100 µM (inactive),> 100 µM (inactive),> 100 µM (inactive),,,> 100 µM (inactive),> 100 µM (inactive),> 100 µM (inactive),> 100 µM (inactive),> 100 µM (inactive),> 100 µM (inactive),> 100 µM (inactive),,
Cn1c(=O)c2c(no[n+]2[O-])c2ccccc21,15.5 µM (inactive),23.3 µM (inactive),,12.9 µM (inactive),20.2 µM (inactive),12.4 µM (inactive),19.7 µM (inactive),24.8 µM (inactive),20.8 µM (inactive),22.1 µM (inactive),18.4 µM (inactive),25.8 µM (inactive),,22.8 µM (inactive),26.4 µM (inactive),18.6 µM (inactive),21.6 µM (inactive),27.8 µM (inactive),23.3 µM (inactive),33 µM (inactive)
O=C(COc1ccc(OCC(=O)N2C(=O)CC(=O)N(c3ccc(Cl)cc3)C2=S)cc1)N1C(=O)CC(=O)N(c2ccc(Cl)cc2)C1=S,19.6 µM (inactive),22.6 µM (inactive),31.6 µM (inactive),10.1 µM (inactive),20.7 µM (inactive),32 µM (inactive),27.9 µM (inactive),32 µM (inactive),22.9 µM (inactive),,33.6 µM (inactive),,50.4 µM (inactive),42 µM (inactive),26.9 µM (inactive),72.9 µM (inactive),,37.3 µM (inactive),,35.4 µM (inactive)
c1ccc(Cc2nc(Cc3n[nH]c(Cc4ccccc4)n3)n[nH]2)cc1,> 100 µM (inactive),> 100 µM (inactive),> 100 µM (inactive),> 100 µM (inactive),> 100 µM (inactive),> 100 µM (inactive),> 100 µM (inactive),> 100 µM (inactive),> 100 µM (inactive),> 100 µM (inactive),> 100 µM (inactive),> 100 µM (inactive),> 100 µM (inactive),> 100 µM (inactive),> 100 µM (inactive),> 100 µM (inactive),,> 100 µM (inactive),11.8 µM (inactive),> 100 µM (inactive)
COc1cc(O)c2c(c1)O[C@@H]1OCC[C@H]21,> 100 µM (inactive),> 100 µM (inactive),,> 100 µM (inactive),> 100 µM (inactive),> 100 µM (inactive),,,,> 100 µM (inactive),> 100 µM (inactive),> 100 µM (inactive),> 100 µM (inactive),> 100 µM (inactive),> 100 µM (inactive),> 100 µM (inactive),,> 100 µM (inactive),,> 100 µM (inactive)
COC(=O)C(=O)C(C(=O)C(=O)Nc1ccc(C)cc1C)c1nc2ccc(Cl)cc2nc1O (stereo not given),> 100 µM (inactive),> 100 µM (inactive),> 100 µM (inactive),> 100 µM (inactive),> 100 µM (inactive),> 100 µM (inactive),> 100 µM (inactive),> 100 µM (inactive),> 100 µM (inactive),> 100 µM (inactive),> 100 µM (inactive),> 100 µM (inactive),> 100 µM (inactive),> 100 µM (inactive),> 100 µM (inactive),> 100 µM (inactive),,> 100 µM (inactive),> 100 µM (inactive),> 100 µM (inactive)
O=c1c2cc(-c3ccccc3)cnc2sn1-c1ccc([N+](=O)[O-])cc1,34.5 µM (inactive),31.8 µM (inactive),61.4 µM (inactive),21.3 µM (inactive),20.6 µM (inactive),50.6 µM (inactive),41.3 µM (inactive),42.3 µM (inactive),32.7 µM (inactive),16.9 µM (inactive),39 µM (inactive),42.7 µM (inactive),58.1 µM (inactive),60 µM (inactive),25.4 µM (inactive),25.1 µM (inactive),44.1 µM (inactive),,,26.9 µM (inactive)
Cc1cccc(/C(Br)=C2/OC(=O)c3ccccc32)c1,> 100 µM (inactive),> 100 µM (inactive),> 100 µM (inactive),> 100 µM (inactive),> 100 µM (inactive),> 100 µM (inactive),,> 100 µM (inactive),,> 100 µM (inactive),> 100 µM (inactive),> 100 µM (inactive),> 100 µM (inactive),> 100 µM (inactive),,> 100 µM (inactive),,> 100 µM (inactive),> 100 µM (inactive),> 100 µM (inactive)
C=C1C2C[C@@H]3O[C@H]4C[C@H]5O[C@@]6(C[C@@H]7O[C@]8(C[C@H](C)[C@@H]9O[C@@H]%10CC(C=O)O[C@@H]%10C[C@@H]9O8)C[C@H](C)[C@@H]7O6)C[C@H]5O[C@H]4[C@H](C)[C@H]3OC(=O)C[C@H]3CC[C@@H]4OC5[C@H]6O[C@]7(CC[C@H]8CC(=C)[C@H](CC[C@@H](C[C@H]1C)O2)O8)CC6O[C@@H]5[C@@H](O7)[C@H]4O3 (stereo not given in full),< 0.0001 µM (active),< 0.0001 µM (active),< 0.0001 µM (active),< 0.0001 µM (active),0.000724 µM (active),< 0.0001 µM (active),0.000229 µM (active),< 0.0001 µM (active),0.000951 µM (active),< 0.0001 µM (active),,,,0.000179 µM (active),0.000104 µM (active),< 0.0001 µM (active),,0.00771 µM (active),< 0.0001 µM (active),
COc1ccc(N2/C(=N/c3ccccc3)SC(=N/S(=O)(=O)c3ccccc3)/C2=N\S(=O)(=O)c2ccccc2)cc1,24.9 µM (inactive),18.5 µM (inactive),,12.6 µM (inactive),16.4 µM (inactive),33.7 µM (inactive),14.3 µM (inactive),,,,,,14.5 µM (inactive),15.8 µM (inactive),18.7 µM (inactive),19.4 µM (inactive),0.298 µM (active),20.1 µM (inactive),18.6 µM (inactive),
COC(=O)c1c(C)cccc1/C=C1\Cc2ccc(C)c(C)c2C1=O,> 100 µM (inactive),> 100 µM (inactive),> 100 µM (inactive),> 100 µM (inactive),74.3 µM (inactive),52.4 µM (inactive),> 100 µM (inactive),,,> 100 µM (inactive),22.3 µM (inactive),> 100 µM (inactive),> 100 µM (inactive),> 100 µM (inactive),52.5 µM (inactive),40.6 µM (inactive),76.7 µM (inactive),> 100 µM (inactive),> 100 µM (inactive),
